{
  "source": "patent EP0306300B1",
  "about": "“Pyrrolo(1,2-a)imidazole and imidazo(1,2-a)pyridine derivatives and their use as 5-lipoxygenase pathway inhibitors” (SMITHKLINE BEECHAM CORPORATION, priority 1987, dated 1989)",
  "key": {"[1]": {"tested_on": "arachidonic acid-induced edema in mice", "assay": "Arachidonic acid-induced mouse ear inflammation (ear swelling)", "assay_type": "in vivo, male Balb/c mice", "conditions": "po; for ED50: mouse, read-out: AAEE(MOUSE ED50 mg/kg (po))", "procedure": "In the tests used to determine activity as 5-lipoxygenase pathway inhibitors, male Balb/c mice (20-28 g), were used. All mice were obtained from Charles River Breeding Laboratories, Kingston, N.Y. Within a single experiment, mice were age matched.\nReagents were employed as follows: Compounds of Formula (I) were each used as the free base. The compounds were homogenized in 0.5% tragacanth. Compounds were administered by […] at the indicated dose in a final volume of 10 ml/kg.\nArachidonic acid in acetone (2 mg/20 »l) was applied to the inner surface of the left ear. The thickness of both ears was then measured with a dial micrometer one hour after treatment, and the data were expressed as the change in thickness (10⁻³ cm) between treated and untreated ears.\nTest compounds were given orally in acid/saline at the times indicated in the text prior to the topical application of arachidonic acid.\nDermatol., 82, 367-371 (1984)]."}, "[2]": {"tested_on": "Eicosanoid Production in Human Whole Blood", "assay": "Inhibition of eicosanoid production following calcium ionophore stimulation in human whole blood", "assay_type": "cell-based", "conditions": "human blood stimulated with calcium ionophore", "procedure": "The eicosanoids, which include the 5-lipoxygenase products LTB , transLTB₄, 20-hydroxyLTB₄, 5-HETE, and the 12-lipoxygenase product are extracted from the whole blood following A23187 calcium ionophore stimulation. The extracts are separated by reverse phase high pressure liquid chromatography and quantified by absorbance methods.\nVenous human blood is collected into polypropylene tubes containing 1% heparin. The blood is then aliquoted into 4.5 ml volumes and preincubated at 37°C for 10 minutes in polypropylene tubes (15 ml size). Compound or carrier (50 »L dimethylsulfoxide) is added 5 minutes prior to stimulation. Calcium ionophore (0.5ml) is added, and the blood incubated for 10 minutes. Prostaglancin B₂(1 nmole) is added, and the blood extracted as described below.\nThe samples are centrifuged at 1000xg for 15 minutes at 5°C. The plasma is collected, and one volume of methanol is added to the plasma. This suspension is then centrifuged at 1000xg for ten minutes at 5°C. The supernatant is collected and diluted with 1.5 volumes of chilled aqueous 1% formic acid: 1% triethylamine. This mixture is loaded onto a preconditioned J.T. Baker C18 SPE cartridge (Phillipsburg, NJ) at a flow rate of 1-2 ml/minute. (The cartridge is preconditioned according to manufacture's recommendations.) The absorbed sample is washed in the following order with three (3) ml each of (i) aqueous 1% formic acid: 1% triethylamine; (ii) petroleium ether; and (iii) 20% acetonitrile: 1% triethylamine.\nThe eicosanoids are eluted in 3ml of 70% acetonitrile: 1% triethylamine. The solvent is removed under vacuum. The sample is resuspended in 200»L of 50% methanol buffered with ammonium acetate.\nThe sample (175 »l) is loaded into a WATERS (Milbord, MA) RCM NOVA PAK C18 (100x8mm) column with the starting mobile phase of 90% A (A = 10% acetonitrile buffered with 30mM ammonium acetate to pH6.8) and 10% B (B = 90% acetonitrile buffered with 30mM ammonium acetate to pH6.8). The flow rate for the separation is 2.5ml/minute. At one minute the %B is increased to 27% in a step fashion. By 12 minutes the %B has increased in a concave hyperbolic function (curve 9) to 40% and increases in a linear manner to 60% by 22 minutes. Under these developing conditions, the retention times for the eicosanoids are: 20-hydroxyLTB₄, 4.6 minutes; transLTB₄, 10 minutes; LTB₄, 10.5 minutes; 12-HETE, 10.4 minutes; 5-HETE, 21 minutes. The HPLC system consisted of WATERS 510 pumps, 840 controller, WISP injector and 990 detector.\nThe eicosanoids in the samples are verified by their retention times and their UV absorbance spectra. The peaks are quantified with reference to the internal standard and their absorbance response at their maximum absorbance wavelength."}, "[3]": {"assay": "Cytochrome P-450 inhibition (ethoxycoumarin-O-deethylase activity, phenobarbital-induced microsomes)", "conditions": "rat, liver microsomes"}, "[4]": {"conditions": "5-HETE, read-out: 5-LO, IC50 (uM) 5-HETE"}, "[5]": {"conditions": "12-HETE, read-out: 5-LO, IC50 (uM) 12-HETE"}, "[6]": {"conditions": "LTB4, read-out: 5-LO, IC50 (uM) LTB4"}, "[7]": {"conditions": "tLTB4, read-out: 5-LO, IC50 (uM) tLTB4"}},
  "note": "pIC50: −log10 of the molar value. Read-outs that look alike come from different tables or passages of the source.",
  "data": [
    {"molecule": "CSc1ccc(-c2nc3n(c2-c2ccncc2)CCC3)cc1", "note": "[Compound 1, 2-(4-Methylthiophenyl)-3-(4-pyridyl)-6,7-dihydro-[5H]-pyrrolo[1,2-a]imidazole]", "values": [
      {"measurement": "ED50", "setting": "[1]", "result": 20, "unit": "mg/kg"},
      {"measurement": "IC50", "setting": "[2]; [4]", "result": 30, "unit": "µM"},
      {"measurement": "IC50", "setting": "[2]; [5]", "result": 60, "unit": "µM"},
      {"measurement": "IC50", "setting": "[2]; 20-OH-LTR4, read-out: 5-LO, IC50 (uM) 20-OH-LTR4", "result": 30, "unit": "µM"},
      {"measurement": "IC50", "setting": "[2]; [6]", "result": 30, "unit": "µM"},
      {"measurement": "IC50", "setting": "[2]; [7]", "result": 30, "unit": "µM"},
      {"measurement": "pIC50", "setting": "[3]", "result": 4.36}
    ]},
    {"molecule": "C[S+]([O-])c1ccc(-c2nc3n(c2-c2ccncc2)CCC3)cc1", "note": "(centres unmarked) [Compound 2, 2-(4-Methylsulfinylphenyl)-3-(4-pyridyl)-6,7-dihydro-[5H]-pyrrolo[1,2-a]imidazole]", "values": [
      {"measurement": "inhibition at 50 mg/kg", "setting": "[1]; Mus musculus, 1 h, 50 mg/kg p.o., ear thickness one hour after 2 mg arachidonic acid", "result": 44, "unit": "%"},
      {"measurement": "ED50", "setting": "[1]", "result": 44, "unit": "mg/kg"},
      {"measurement": "IC50", "setting": "[2]; [4]", "result": 80, "unit": "µM"},
      {"measurement": "IC50", "setting": "[2]; [5]", "result": 80, "unit": "µM"},
      {"measurement": "IC50", "setting": "[2]; [6]", "result": 80, "unit": "µM"},
      {"measurement": "IC50", "setting": "[2]; [7]", "result": 80, "unit": "µM"},
      {"measurement": "pIC50", "setting": "[3]", "result": 3.06}
    ]}
  ]
}
